Here are results for twelve compounds from US10189838B2, “Aza-oxo-indoles for the treatment and prophylaxis of respiratory syncytial virus infection” (Hoffmann-La Roche Inc., priority 2013, dated 2019).

One data set relates to RSV Long strain. Kind of data set: Viral cytopathic effect (CPE) assay, RSV Long strain. In kind it is cell-based, Respiratory Syncytial Virus. The following applies: human respiratory syncytial virus, 144 h, cell viability after 6 days (Cell Counting kit-8). A digest of the protocol: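 Cells in DMEM with 10% FBS infected next day with RSV Long (A subtype) at a dose giving ~80–90% CPE after 6 days, alongside half-log compound dilutions. Viability at day 6 by CCK-8, absorbance 450 nm referenced to 630 nm; EC50 is concentration giving 50% of maximal protection.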

The nature of data set [1]: Single dose PK in male ICR mouse (IV and PO). The following applies: male ICR mice; for AUC(0-t) / bioavailability: mouse, plasma; for bioavailability: read-out: F (bioavailability). In kind it is in vivo. As for the experimental part:
The single dose PK in male ICR mouse was performed to assess their pharmacokinetic properties. Two groups of animals were dosed via either bolus intravenous (IV) or oral gavage (PO) of the respective compound. The animals for oral administration were fasted overnight prior to dosing and food was resumed 4 hours postdose. Blood samples (approximately 400 μL) were collected via cardiac puncture after euthanasia by carbon dioxide inhalation at 2 minutes, 5 minutes, 15 minutes, 30 minutes, 1 hour, 2 hours, 4 hours, 6 hours, 8 hours, and 24 hours postdose for IV group, and at 5 minutes, 15 minutes, 30 minutes, 1 hour, 2 hours, 4 hours, 6 hours, 8 hours, and 24 hours postdose for PO group. Blood samples were placed into tubes containing sodium heparin and centrifuged at 8000 rpm for 6 minutes at 4° C. to separate plasma from the samples.
Following centrifugation, the resulting plasma was transferred to clean tubes for bioanalysis on LC/MS/MS. The pharmacokinetic parameters were calculated using non-compartmental module of WinNonlin® Professional 5.2.

The next data set has as its system RSV infection. As to conditions: selected infants, intramuscularly 15 mg/kg once a month for the RSV season; cited from earlier work.

As to `CS(=O)(=O)CCn1c(CN2C(=O)C3(CC3)c3ccncc32)cc2cc(Cl)cnc21` [Example 2-6, 1′-({5-Chloro-1-[2-(methylsulfonyl)ethyl]-1H-pyrrolo[2,3-b]pyridin-2-yl}methyl)spiro[cyclopropane-1,3′-pyrrolo[2,3-c]pyridin]-2′(1′H)-one], a half-maximal response in the data set with RSV Long strain (EC50) required 0.0273 µM. In data set [1] (IV 5 mg/kg), the CLz is reported as 23.7 mL/min/kg, the t1/2z was determined as 0.724 h and the AUC(0-t) is 3510 ng·h/mL. Moreover, in data set [1] (PO 25 mg/kg), the “F (bioavailability)” value is recorded as 58.3%, the t1/2z was found to be 0.701 h and the AUC(0-t) came to 10200 ng·h/mL.

For the compound `CS(=O)(=O)CCn1c(CN2C(=O)C3(CC3)c3ccncc32)nc2cc(Cl)ccc21` [Example 34-1, 1′-({5-Chloro-1-[2-(methylsulfonyl)ethyl]-1H-benzimidazol-2-yl}methyl)spiro[cyclopropane-1,3′-pyrrolo[2,3-c]pyridin]-2′(1′H)-one], the EC50 with RSV Long strain came out at 0.012 µM. Besides, in data set [1] (IV 1.45 mg/kg), the CLz was 64.8 mL/min/kg, the t1/2z came out at 10.2 h and the area under the curve AUC(0-t) stood at 373 ng·h/mL. In data set [1] (PO 25 mg/kg), the t1/2z came to 2.98 h, the AUC(0-t) turned out to be 3280 ng·h/mL and the bioavailability stood at 51%.

In the data set with RSV Long strain, `CS(=O)(=O)CCCn1c(CN2C(=O)C3(CC3)c3ccncc32)nc2cc(Cl)ccc21` [Example 36-1, 1′-({5-Chloro-1-[3-(methylsulfonyl)propyl]-1H-benzimidazol-2-yl}methyl)spiro[cyclopropane-1,3′-pyrrolo[2,3-c]pyridin]-2′(1′H)-one] came in with a concentration giving a half-maximal response (EC50) of 0.002 µM.

On to `O=C1N(Cc2nc3cc(Cl)ccc3n2CCS(=O)(=O)C2CC2)c2cnccc2C12CC2` [Example 36-2, 1′-({5-Chloro-1-[2-(cyclopropylsulfonyl)ethyl]-1H-benzimidazol-2-yl}methyl)spiro[cyclopropane-1,3′-pyrrolo[2,3-c]pyridin]-2′(1′H)-one], for which a half-maximal effect in the data set with RSV Long strain (EC50) was put at 0.008 µM.

`CS(=O)(=O)CCn1c(CN2C(=O)C3(CC3)c3ccncc32)nc2cc(Cl)cc(F)c21` [Example 37-1, 1′-({5-Chloro-7-fluoro-1-[2-(methylsulfonyl)ethyl]-1H-benzimidazol-2-yl}methyl)spiro[cyclopropane-1,3′-pyrrolo[2,3-c]pyridin]-2′(1′H)-one]: the EC50 in the data set with RSV Long strain was 0.009 µM. In data set [1] (IV 2 mg/kg), this compound returned a CLz of 44.4 mL/min/kg, a t1/2z of 0.976 h and an AUC(0-t) of 751 ng·h/mL. In addition, in data set [1] (PO 25 mg/kg), the t1/2z stood at 3.74 h, the AUC(0-t) worked out at 9290 ng·h/mL and the bioavailability is 99%.

In turn, `CS(=O)(=O)CCn1c(CN2C(=O)C3(CC3)c3ccncc32)nc2cc(Cl)cc(Cl)c21` [Example 37-2, 1′-({5,7-Dichloro-1-[2-(methylsulfonyl)ethyl]-1H-benzimidazol-2-yl}methyl)spiro[cyclopropane-1,3′-pyrrolo[2,3-c]pyridin]-2′(1′H)-one] showed an EC50 with RSV Long strain of 0.0168 µM.

Compound `O=C1N(Cc2nc3cc(Cl)ccc3n2CC2COC2)c2cnccc2C12CC2` [Example 38-1, 1′-{[5-Chloro-1-(oxetan-3-ylmethyl)-1H-benzimidazol-2-yl]methyl}spiro[cyclopropane-1,3′-pyrrolo[2,3-c]pyridin]-2′(1′H)-one] showed an EC50 with RSV Long strain of 0.003 µM. Against the preceding compound, the EC50 is about 5.6-fold lower.

In the data set with RSV Long strain, `O=C1N(Cc2nc3cc(Cl)ccc3n2CCC2COC2)c2cnccc2C12CC2` [Example 38-2, 1′-({5-Chloro-1-[2-(oxetan-3-yl)ethyl]-1H-benzimidazol-2-yl}methyl)spiro[cyclopropane-1,3′-pyrrolo[2,3-c]pyridin]-2′(1′H)-one] showed an EC50 of 0.003 µM.

`O=C1N(Cc2nc3cc(Cl)cc(F)c3n2CC2COC2)c2cnccc2C12CC2` [Example 38-3, 1′-{[5-Chloro-7-fluoro-1-(oxetan-3-ylmethyl)-1H-benzimidazol-2-yl]methyl}spiro[cyclopropane-1,3′-pyrrolo[2,3-c]pyridin]-2′(1′H)-one] came in with an EC50 in the data set with RSV Long strain of 0.03 µM.

`NC1(Cn2c(CN3C(=O)C4(CC4)c4ccncc43)nc3cc(Cl)ccc32)COC1` [Example 39-1, 1′-({1-[(3-Aminooxetan-3-yl)methyl]-5-chloro-1H-benzimidazol-2-yl}methyl)spiro[cyclopropane-1,3′-pyrrolo[2,3-c]pyridin]-2′(1′H)-one] showed an EC50 with RSV Long strain of 0.018 µM.

For the compound `NC1(Cn2c(CN3C(=O)C4(CC4)c4ccncc43)nc3cc(Cl)cc(F)c32)COC1` [Example 39-2, 1′-({1-[(3-Aminooxetan-3-yl)methyl]-5-chloro-7-fluoro-1H-benzimidazol-2-yl}methyl)spiro[cyclopropane-1,3′-pyrrolo[2,3-c]pyridin]-2′(1′H)-one], the EC50 in the data set on RSV Long strain is 0.227 µM.

For palivizumab, in the data set on RSV infection, the “reduction of hospitalization rate caused by RSV infection” value is 45-55%.
